Measurements from paper PMC2877376 (Journal of biomolecular screening, 2009).

Test system: E. coli K-12 sulA-gfp (strain SS996)
Test: RecA-dependent SOS activation, sulA-gfp reporter
Assay type: cell-based, Escherichia coli
Details: ciprofloxacin only, 90 min, 37 °C; untreated bacteria 0.76

Question: `O=C(O)c1cn(C2CC2)c2cc(N3CCNCC3)c(F)cc2c1=O` [ciprofloxacin] was tested. Which “relative GFP expression (GFP/DAPI intensity ratio)” value did it give?
Answer: Its value is 0.87.
